Test results reported in patent publication US9682024B2, “Protection against sunburn and skin problems with topical and orally-ingested dosages of zeaxanthin” (ZeaVision, LLC, priority 2002, dated 2017).

Legend:
retinas = conditions: in vivo; cited from earlier work
human fibroblast cells = conditions: Eichler et al 2002; cited from earlier work
skin [1] = test: Minimal erythemal dosage (MED) test with medical-grade UV lamp after oral zeaxanthin; format: in vivo, human
skin [2] = test: Sunburn protection during prolonged exposure to direct sunlight after oral zeaxanthin; format: in vivo, human
Experimental: (§1) That dosage was in the range of about 60 mg of zeaxanthin per day for roughly 2 weeks, then about 80 mg/day for a week).
While in the Caribbean, they intentionally exposed themself to direct sunlight at a substantially higher intensity than they normally received in their home state of Missouri, for sufficient periods of time to give them an “onset” type of sunburn, which would convert to a suntan over a span of several days if they took proper care of their skin and put lotion on it. […] Instead, any mild redness they experienced in the evening, at the end of a day with a prolonged session in the sun, was not accompanied by sensations of pain, burning, tightness, or dryness in the skin, and it converted to a normal (or slightly reddish, but not uncomfortable) suntan within less than 24 hours.
(§2) One coworker began taking 10 mg/day during April, and increased to 20 mg/day during May, and then increased to 40 mg/day during June. […] In July, they increased their dosage to 80 mg/day during several week-long periods, to see what effect it would have on skin color, and on sunburn resistance.
On a couple of weekend days during July, and during a family vacation in early August, they deliberately subjected themself to prolonged sun exposure without any sun-blocking lotion, including sessions that normally would have caused them substantial or severe sunburns accompanied by serious discomfort. Instead of receiving those types of sunburns, by the evening of a day like that, they could detect some redness in their skin color, and a heightened condition of skin sensitivity; however, they felt no serious discomfort or sense of “radiating heat” in their skin, and no interference with their ability to sleep comfortably; in addition, by the following day, the redness appeared to be entirely gone.
(§3) After seeing and hearing the highly positive results obtained by the two people described in Examples 1 and 2, another coworker decided to also begin taking zeaxanthin at 40 mg/day, starting a couple of weeks before going on a summer vacation with their family.
(§4) A third coworker began taking 10 mg of zeaxanthin per day. Although they were aware of the above-described anecdotal reports of sunburn protection being provided by higher dosages, they decided to not alter their dosage, and they stayed at a dosage of 10 mg/day.

skin [3] = test: Darkening of skin color after oral zeaxanthin; format: in vivo, human
Experimental: as §1, §2, §3, §4
Promptly after that baseline determination, this person began ingesting 30 mg of zeaxanthin per day (10 mg with […] morning meal, and 20 mg with […] evening meal, using the 10 mg capsules available from ZeaVision LLC). During that time, […] continued to take the same anti-oxidant regimen as before. […] […] then re-tested […], using the same UV lamp and procedures as before.

[4] = Tolerability and excretion of high oral zeaxanthin dosages; format: in vivo, human
[5] = in vivo
Text: One aspect of that project involved testing both zeaxanthin and lutein, in various dosages and formulations, to evaluate the increases that would result in circulating blood, and in retinal tissue, in human volunteers. A set of tests on human volunteers was developed with assistance by outside experts with skill and experience in that type of planning, and proper steps were taken to obtain informed consent from all volunteers.

[6] = reported to US-FDA by Roche Vitamins Inc.; cited from earlier work
[7] = cited from earlier work
[8] = according to Lorenz, US 6,433,025; cited from earlier work
lung cancer = conditions: smokers; daily ingestion of 30 to 60 mg/day; cited from earlier work
[9] = system: skin diseases such as porphyria; conditions: cited from earlier work
skin cells in culture = conditions: quoted from Biesalski et al 2001; cited from earlier work

CC1=C(/C=C/C(C)=C/C=C/C(C)=C/C=C/C=C(C)/C=C/C=C(C)/C=C/C2=C(C)C(=O)CCC2(C)C)C(C)(C)CCC1=O [canthaxanthin]
retinal side effect (retinas): canthaxanthin crystals were being formed and deposited in the retinas

CC(C)=CCC/C(C)=C/C=C/C(C)=C/C=C/C(C)=C/C=C/C=C(C)/C=C/C=C(C)/C=C/C=C(\C)CCC=C(C)C [lycopene]
amount of carotenoid needed for optimal protection (human fibroblast cells): 0.05 nmol/mg protein

CC1=C[C@H](O)CC(C)(C)[C@H]1/C=C/C(C)=C/C=C/C(C)=C/C=C/C=C(C)/C=C/C=C(C)/C=C/C1=C(C)C[C@@H](O)CC1(C)C [lutein]
amount of carotenoid needed for optimal protection (human fibroblast cells): 0.30 nmol/mg protein

CC1=C(/C=C/C(C)=C/C=C/C(C)=C/C=C/C=C(C)/C=C/C=C(C)/C=C/C2=C(C)C[C@@H](O)CC2(C)C)C(C)(C)C[C@H](O)C1 [zeaxanthin]
MED increase, post-ingestion compared to pre-ingestion (skin [1]; each volunteer of the UV lamp tests, 30 mg/day or higher): > 30%
MED level relative to baseline value (skin [1]; first inventor, 60 mg/day for another 3 weeks, baseline 7): more than double
post-ingestion MED (minimal erythemal dosage) (skin [1]; first inventor, oral 30 mg/day for 3 weeks, baseline 7.0 minutes, on top of anti-oxidant regimen): 10.5 min
post-ingestion MED (minimal erythemal dosage) (skin [1]; first inventor, then 60 mg/day for another 3 weeks, baseline 7.0 minutes): 16 min
MED value relative to baseline (skin [1]; second volunteer, 60 mg/day for 20 days): doubled
post-ingestion MED (minimal erythemal dosage) (skin [1]; second volunteer, 60 mg/day for 20 days, baseline 5.0 minutes): 10 min
redness of longest-duration UV-exposed skin patches (skin [1]; two subjects after ingesting zeaxanthin, UV up to >20 minutes and up to 15 minutes): plateau effect
peeling or flaking of clearly UV-burned spots (skin [1]; two subjects, post-ingestion tests, after several days): did not begin peeling or flaking
time for mild redness to convert to normal suntan (skin [2]; Example 1, about 60 then 80 mg/day): less than 24 hours
sunburn after prolonged direct sunlight (skin [2]; Example 1, about 60 then 80 mg/day, Caribbean): did not get sunburned in the normal manner
sunburn after prolonged sun exposure without sun-blocking lotion (skin [2]; Example 2 coworker, up to 80 mg/day): excellent protection against sunburn
sunburn after prolonged sun exposure with no protective lotion (skin [2]; Example 3 coworker, 40 mg/day): had not suffered any sunburns
sunburn after prolonged session of exposure to the sun (skin [2]; Example 4 coworker, 10 mg/day): suffered a noticeable sunburn
skin color change (skin [3]; Example 1, about 60 mg/day roughly 2 weeks, then about 80 mg/day for a week): noticeable change in the color and tint of their skin
skin color change (skin [3]; Example 2 coworker, 40 mg/day): slight but noticeable darkening of their skin
skin color change (skin [3]; Example 2 coworker, 80 mg/day during several week-long periods): noticeably darker
skin color change (skin [3]; Example 3 coworker, 40 mg/day for a couple of weeks): mildly darker and more tanned shade
skin color change (skin [3]; Example 4 coworker, 10 mg/day): could not detect any change in their skin color
skin coloration (skin [3]; all volunteers who ingested 30 mg or more per day): darkened coloration
skin color change (skin [3]; first inventor, 30 mg/day for three weeks): slightly perceptible color change in the palms of the hands
fecal coloration ([4]; high dosages, humans): changes in fecal coloration
adverse effects ([4]; second inventor, 80 mg/day): no adverse effects
dosage response in circulating blood concentrations [5]: valid dosage response
No Adverse Effect Level (NOAEL) [6]: 1200 mg/day
solubility in water [7]: not soluble in water

CC1=C(/C=C/C(C)=C/C=C/C(C)=C/C=C/C=C(C)/C=C/C=C(C)/C=C/C2=C(C)C(=O)[C@@H](O)CC2(C)C)C(C)(C)C[C@H](O)C1=O [astaxanthin]
potency as anti-oxidant protective agent versus other carotenoids [8]: roughly ten times the potency

CC1=C(/C=C/C(C)=C/C=C/C(C)=C/C=C/C=C(C)/C=C/C=C(C)/C=C/C2=C(C)CCCC2(C)C)C(C)(C)CCC1 [β-carotene]
amount of carotenoid needed for optimal protection (human fibroblast cells): 0.40 nmol/mg protein
elevation of risk of lung cancer (lung cancer): ~30%
effective dosage level to treat skin diseases [9]: 180 mg/day
oxidant properties in cultured skin cells (skin cells in culture): unexpected prooxidant properties
